According to patent US10280149B2, “Therapeutic compounds and uses thereof” (GENENTECH, INC., priority 2015, dated 2019):

target: Full length KDM2B (Homo sapiens (Human), UniProt Q8NHM5); experiment: KDM2B TR-FRET assay for determining inhibitor IC50; assay type: biochemical; details: TR-FRET (HTRF), biotin-H3K36me2 peptide substrate, 2-OG 0.3 μM or 6 μM
Text: KDM2B TR-FRET Assay for Determining Inhibitor IC50
The KDM2B TR-FRET Assay described above represents an additional embodiment of the invention.

Sequence of Full length KDM2B (Q8NHM5 whole entry): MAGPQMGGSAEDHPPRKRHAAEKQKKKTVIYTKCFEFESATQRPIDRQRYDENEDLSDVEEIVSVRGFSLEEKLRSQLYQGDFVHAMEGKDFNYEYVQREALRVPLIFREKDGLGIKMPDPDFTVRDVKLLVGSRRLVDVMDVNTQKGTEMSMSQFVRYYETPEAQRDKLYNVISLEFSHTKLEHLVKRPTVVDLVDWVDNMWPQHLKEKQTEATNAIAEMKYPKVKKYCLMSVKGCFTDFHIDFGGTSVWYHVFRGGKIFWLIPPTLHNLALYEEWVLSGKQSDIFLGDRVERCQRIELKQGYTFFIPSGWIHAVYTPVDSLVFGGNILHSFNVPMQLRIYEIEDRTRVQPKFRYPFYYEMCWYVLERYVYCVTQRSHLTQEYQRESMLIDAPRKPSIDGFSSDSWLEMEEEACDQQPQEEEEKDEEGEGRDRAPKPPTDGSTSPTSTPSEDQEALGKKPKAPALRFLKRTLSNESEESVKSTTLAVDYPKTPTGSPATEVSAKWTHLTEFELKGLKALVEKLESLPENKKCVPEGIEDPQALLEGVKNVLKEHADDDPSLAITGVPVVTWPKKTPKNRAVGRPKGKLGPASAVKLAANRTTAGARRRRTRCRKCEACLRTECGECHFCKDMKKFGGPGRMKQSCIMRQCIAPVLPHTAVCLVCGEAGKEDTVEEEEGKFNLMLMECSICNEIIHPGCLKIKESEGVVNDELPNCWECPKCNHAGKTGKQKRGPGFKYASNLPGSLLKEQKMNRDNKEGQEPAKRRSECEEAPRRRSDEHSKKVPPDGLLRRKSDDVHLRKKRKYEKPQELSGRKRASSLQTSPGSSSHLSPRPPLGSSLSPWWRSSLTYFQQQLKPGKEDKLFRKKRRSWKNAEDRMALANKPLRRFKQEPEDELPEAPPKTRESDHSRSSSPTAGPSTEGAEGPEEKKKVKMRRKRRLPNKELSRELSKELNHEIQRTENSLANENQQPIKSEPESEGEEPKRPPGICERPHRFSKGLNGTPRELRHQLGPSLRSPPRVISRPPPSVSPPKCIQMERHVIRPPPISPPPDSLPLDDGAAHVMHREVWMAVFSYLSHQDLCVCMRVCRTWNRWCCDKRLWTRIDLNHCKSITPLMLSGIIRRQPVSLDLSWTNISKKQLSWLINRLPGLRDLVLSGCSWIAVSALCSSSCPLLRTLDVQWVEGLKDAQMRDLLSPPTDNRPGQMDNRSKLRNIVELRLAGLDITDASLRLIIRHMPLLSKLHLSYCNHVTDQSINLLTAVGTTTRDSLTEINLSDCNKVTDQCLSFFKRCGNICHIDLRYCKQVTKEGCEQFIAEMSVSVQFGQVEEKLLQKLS

Structure (SMILES)	IC50 [nM]
COc1ccc(C(=O)C2CCCN(C3CCC3)C2)c(OC)c1 (centres unmarked) [Example 5, (1-cyclobutyl-3-piperidyl)-(2,4-dimethoxyphenyl)methanone]	2500
COc1ccc2cc(C(=O)C3CCCN(C4CCOCC4)C3)ccc2c1 (centres unmarked) [Example 6, (6-methoxy-2-naphthyl)-(1-tetrahydropyran-4-yl-3-piperidyl)methanone]	2600
COc1ccc2cc(C(=O)[C@@H]3CCCN(CC4CC4)C3)ccc2c1 [Example 7, [(3R)-1-(cyclopropylmethyl)-3-piperidyl]-(6-methoxy-2-naphthyl)methanone]	123
COc1ccc2cc(C(=O)[C@H]3CCCN(CC4CC4)C3)ccc2c1 [Example 8, [(3S)-1-(cyclopropylmethyl)-3-piperidyl]-(6-methoxy-2-naphthyl)methanone]	2700
COc1ccc2cc(C(=O)[C@@H]3CCCN(C4CCCC4)C3)ccc2c1 [Example 9, [(3R)-1-cyclopentyl-3-piperidyl]-(6-methoxy-2-naphthyl)methanone]	3000
COc1ccc2cc(C(=O)[C@H]3CCCN(C4CCCC4)C3)ccc2c1 [Example 10, [(3S)-1-cyclopentyl-3-piperidyl]-(6-methoxy-2-naphthyl)methanone]	56.6
COc1ccc(C(=O)[C@H]2CCCN(C3CCC3)C2)c(OC)c1 [Example 11, [(3S)-1-cyclobutyl-3-piperidyl]-(2,4-dimethoxyphenyl)methanone]	153
COc1ccc(C(=O)[C@@H]2CCCN(C3CCC3)C2)c(OC)c1 [Example 12, [(3R)-1-cyclobutyl-3-piperidyl]-(2,4-dimethoxyphenyl)methanone]	9000
COc1ccc2cc(C(=O)C3CCCN(C4COC4)C3)ccc2c1 (centres unmarked) [Example 14, (6-methoxy-2-naphthyl)-[1-(oxetan-3-yl)-3-piperidyl]methanone]	1200
COc1ccc2cc(C(=O)C3CCCN(C4CCOC4)C3)ccc2c1 (centres unmarked) [Example 15, (6-methoxy-2-naphthyl)-(1-tetrahydrofuran-3-yl-3-piperidyl)methanone]	430
CCCN1CCCC(C(=O)c2ccc3cc(OC)ccc3c2)C1 (centres unmarked) [Example 18, (6-methoxy-2-naphthyl)-(1-propyl-3-piperidyl)methanone]	161
O=C(c1cccc(Oc2ccccc2)c1)C1CCCN(CC2CC2)C1 (centres unmarked) [Example 21, [1-(cyclopropylmethyl)-3-piperidyl]-(3-phenoxyphenyl)methanone]	461
O=C(c1ccc(C(F)(F)F)cc1)C1CCCN(CC2CC2)C1 (centres unmarked) [Example 22, [1-(cyclopropylmethyl)-3-piperidyl]-[4-(trifluoromethyl)phenyl]methanone]	1400
O=C(c1ccc(Oc2ccccc2)cc1)C1CCCN(CC2CC2)C1 (centres unmarked) [Example 23, [1-(cyclopropylmethyl)-3-piperidyl]-(4-phenoxyphenyl)methanone]	2100
O=C(c1cccc(-c2ccccc2)c1)C1CCCN(CC2CC2)C1 (centres unmarked) [Example 25, [1-(cyclopropylmethyl)-3-piperidyl]-(3-phenylphenyl)methanone]	1400
O=C(c1cc(F)c2ccccc2c1)C1CCCN(CC2CC2)C1 (centres unmarked) [Example 26, [1-(cyclopropylmethyl)-3-piperidyl]-(4-fluoro-2-naphthyl)methanone]	551
O=C(c1cccc(Oc2ccc(F)cc2)c1)C1CCCN(CC2CC2)C1 (centres unmarked) [Example 27, [1-(cyclopropylmethyl)-3-piperidyl]-[3-(4-fluorophenoxy)phenyl]methanone]	221
O=C(c1cccc(Oc2ccccc2)c1)[C@H]1CCCN(CC2CC2)C1 [Example 28, [(3S)-1-(cyclopropylmethyl)-3-piperidyl]-(3-phenoxyphenyl)methanone]	1700
O=C(c1cccc(Oc2ccccc2)c1)[C@@H]1CCCN(CC2CC2)C1 [Example 29, [(3R)-1-(cyclopropylmethyl)-3-piperidyl]-(3-phenoxyphenyl)methanone]	148
O=C(c1ccc(Oc2ccccc2)cc1)[C@@H]1CCCN(CC2CC2)C1 [Example 30, [(3R)-1-(cyclopropylmethyl)-3-piperidyl]-(4-phenoxyphenyl)methanone]	5900
O=C(c1ccc(Oc2ccccc2)cc1)[C@H]1CCCN(CC2CC2)C1 [Example 31, [(3S)-1-(cyclopropylmethyl)-3-piperidyl]-(4-phenoxyphenyl)methanone]	136
O=C(c1ccc(-c2ccccc2)cc1)[C@@H]1CCCN(CC2CC2)C1 [Example 32, [(3R)-1-(cyclopropylmethyl)-3-piperidyl]-(4-phenylphenyl)methanone]	4100
O=C(c1ccc(-c2ccccc2)cc1)[C@H]1CCCN(CC2CC2)C1 [Example 33, [(3S)-1-(cyclopropylmethyl)-3-piperidyl]-(4-phenylphenyl)methanone]	95.4
Cc1ccc(-c2ccc(C(=O)C3CCCN(CC4CC4)C3)cc2)cc1 (centres unmarked) [Example 34, [1-(cyclopropylmethyl)-3-piperidyl]-[4-(p-tolyl)phenyl]methanone]	402

Structure (SMILES)	IC50 [nM]
O=C(c1cc(CO)c2ccccc2c1)C1CCCN(CC2CC2)C1 (centres unmarked) [Example 35, [1-(cyclopropylmethyl)-3-piperidyl]-[4-(hydroxymethyl)-2-naphthyl]methanone]	169
O=C(c1ccc(-c2ccccc2)nc1)C1CCCN(CC2CC2)C1 (centres unmarked) [Example 36, [1-(cyclopropylmethyl)-3-piperidyl]-(6-phenyl-3-pyridyl)methanone]	533
NCc1cc(C(=O)C2CCCN(CC3CC3)C2)cc2ccccc12 (centres unmarked) [Example 37, [4-(aminomethyl)-2-naphthyl]-[1-(cyclopropylmethyl)-3-piperidyl]methanone]	620
O=C(c1ccc(-c2ccccn2)cc1)C1CCCN(CC2CC2)C1 (centres unmarked) [Example 38, [1-(cyclopropylmethyl)-3-piperidyl]-[4-(2-pyridyl)phenyl]methanone]	596
CC(=O)NCc1cc(C(=O)C2CCCN(CC3CC3)C2)cc2ccccc12 (centres unmarked) [Example 39, N-[[3-[1-(cyclopropylmethyl)piperidine-3-carbonyl]-1-naphthyl]methyl]acetamide]	460
CNC(=O)c1cc(C(=O)C2CCCN(CC3CC3)C2)cc2ccccc12 (centres unmarked) [Example 40, 3-[1-(cyclopropylmethyl)piperidine-3-carbonyl]-N-methyl-naphthalene-1-carboxamide]	626
CNC(=O)c1cc(C(=O)C2CCCN(C3CCCC3)C2)cc2ccccc12 (centres unmarked) [Example 41, 3-(1-cyclopentylpiperidine-3-carbonyl)-N-methyl-naphthalene-1-carboxamide]	700
CNC(=O)c1cc(C(=O)C2CCCN(C3CCC3)C2)cc2ccccc12 (centres unmarked) [Example 42, 3-(1-cyclobutylpiperidine-3-carbonyl)-N-methyl-naphthalene-1-carboxamide]	243
N#Cc1cc(C(=O)C2CCCN(CC3CC3)C2)cc2ccccc12 (centres unmarked) [Example 43, 3-[1-(cyclopropylmethyl)piperidine-3-carbonyl]naphthalene-1-carbonitrile]	143
N#Cc1cc(C(=O)C2CCCN(C3CCC3)C2)cc2ccccc12 (centres unmarked) [Example 44, 3-(1-cyclobutylpiperidine-3-carbonyl)naphthalene-1-carbonitrile]	101
N#Cc1cc(C(=O)C2CCCN(C3CCCC3)C2)cc2ccccc12 (centres unmarked) [Example 45, 3-(1-cyclopentylpiperidine-3-carbonyl)naphthalene-1-carbonitrile]	267
NC(=O)c1cc(C(=O)C2CCCN(C3CCCC3)C2)cc2ccccc12 (centres unmarked) [Example 46, 3-(1-cyclopentylpiperidine-3-carbonyl)naphthalene-1-carboxamide]	209
NC(=O)c1cc(C(=O)C2CCCN(C3CCC3)C2)cc2ccccc12 (centres unmarked) [Example 47, 3-(1-cyclobutylpiperidine-3-carbonyl)naphthalene-1-carboxamide]	99.7
NC(=O)c1cc(C(=O)C2CCCN(CC3CC3)C2)cc2ccccc12 (centres unmarked) [Example 48, 3-[1-(cyclopropylmethyl)piperidine-3-carbonyl]naphthalene-1-carboxamide]	180
COc1ccc2cc(C(=O)C3CCCN(CC4CC4)C3)ccc2c1C (centres unmarked) [Example 49, [1-(cyclopropylmethyl)-3-piperidyl]-(6-methoxy-5-methyl-2-naphthyl)methanone]	163
CCCN1CCCC(C(=O)c2ccc3c(C)c(OC)ccc3c2)C1 (centres unmarked) [Example 50, (6-methoxy-5-methyl-2-naphthyl)-(1-propyl-3-piperidyl)methanone]	26
COc1ccc2cc(C(=O)C3CCCN(C4CCCC4)C3)ccc2c1C (centres unmarked) [Example 51, (1-cyclopentyl-3-piperidyl)-(6-methoxy-5-methyl-2-naphthyl)methanone]	118
COc1ccc2cc(C(=O)C3CCCN(C4CCC4)C3)ccc2c1C (centres unmarked) [Example 52, (1-cyclobutyl-3-piperidyl)-(6-methoxy-5-methyl-2-naphthyl)methanone]	39.4
COc1ccc2cc(C(=O)C3CCCN(CC4CC4)C3)ccc2c1CC#N (centres unmarked) [Example 53, 2-[6-[1-(cyclopropylmethyl)piperidine-3-carbonyl]-2-methoxy-1-naphthyl]acetonitrile]	33.5
COc1ccc2cc(C(=O)C3CCCN(C4CCCC4)C3)ccc2c1CC#N (centres unmarked) [Example 54, 2-[6-(1-cyclopentylpiperidine-3-carbonyl)-2-methoxy-1-naphthyl]acetonitrile]	39.5
COc1ccc2cc(C(=O)C3CCCN(C4CCC4)C3)ccc2c1CC#N (centres unmarked) [Example 55, 2-[6-(1-cyclobutylpiperidine-3-carbonyl)-2-methoxy-1-naphthyl]acetonitrile]	13.2
CCCN1CCCC(C(=O)c2ccc3c(CC#N)c(OC)ccc3c2)C1 (centres unmarked) [Example 56, 2-[2-methoxy-6-(1-propylpiperidine-3-carbonyl)-1-naphthyl]acetonitrile]	270
O=C(c1cc(CO)c2ccccc2c1)C1CCCN(C2CCCC2)C1 (centres unmarked) [Example 57, (1-cyclopentyl-3-piperidyl)-[4-(hydroxymethyl)-2-naphthyl]methanone]	125
